Assay results published in patent US20230114728A1 (Venatorx Pharmaceuticals, Inc., priority 2019, published 2023).

How the values were obtained:
E. coli K12 PBP2 = target: T1, E. coli K12 PBP2 (Escherichia coli, UniProt P0AD65); assay: Bocillin-FL fluorescence polarization competition binding assay, E. coli PBP2
T1 construct: made in house
From the text: (§1) Example I: Experimental Method for Penicillin-Binding Protein Binding Assays with Bocillin-FL Via Fluorescence Polarization
(§2) To determine the ability of boronic acid-based test PBP inhibitors to bind Penicillin Binding Proteins (PBPs), Bocillin-FL (fluorescently-labeled penicillin V; ThermoFisher Scientific) was used in a fluorescence polarization (FP) competition binding assay to assess inhibitor binding to PBP2, PBP3 or PBP4 from Escherichia coli (K12), PBP3 from Pseudomonas aeruginosa (PA01), PBP1a, PBP2 and PBP3 from Acinetobacter baumannii (ATCC 19606), and PBP2 from Neiserria gonorrheae (FA19). PBPs were cloned and purified as described previously (E. coli PBPs, King, D. T, et al., ACS Infectious Diseases 2015, 1, 175-184; P. aeruginosa PBP3, Han et. al., PNAS 2010, 107 (51), 22002-22007; A. baumannii PBPs, Penwell et. al., Antimicrob. Agents Chemother. 2015, 59 (3), 1680-1689; N. gonorrhoeae PBP2, Singh et. al., J Biol. Chem. 2019, 294 (38), 14020-14032). To establish assay conditions for competition binding, enzyme titration/saturation binding experiments were initially performed. Bocillin-FL was prepared at 0.2 μM in a buffer comprised of 50 mM Hepes (pH 8.0), 300 mM NaCl and 5% (v/v) glycerol for reactions with E. coli, P. aeruginosa and N. gonorrhoeae PBPs, and 25 mM Tris (pH 8.0), 200 mM NaCl and 10% (v/v) glycerol and 0.005% (v/v) Tween 20 for reactions with A. baumannii PBPs. Saturation binding was performed by mixing 40 μl of PBP solutions ranging in concentrations from 0-24 μM with 40 μl of the 0.2 μM Bocillin-FL solution, in individual wells of a black 384-well microplate. FP was measured immediately upon mixing (Excitation, 490 nm; Emission, 520 nm; g-factor, 0.96), using a Cytation3 (BioTek) microplate reader and measured continuously for up to 120 minutes. […] Bocillin-FL was added and the FP immediately measured for up to 60 minutes (90 minutes for E. coli PBP2). […]

A. baumannii PBP2 = target: T2, A. baumannii PBP2 (Acinetobacter baumannii, UniProt D0C8Z9); assay: Bocillin-FL fluorescence polarization competition binding assay, A. baumannii PBP2
T2 construct: made in house
T2 sequence (D0C8Z9 1-672): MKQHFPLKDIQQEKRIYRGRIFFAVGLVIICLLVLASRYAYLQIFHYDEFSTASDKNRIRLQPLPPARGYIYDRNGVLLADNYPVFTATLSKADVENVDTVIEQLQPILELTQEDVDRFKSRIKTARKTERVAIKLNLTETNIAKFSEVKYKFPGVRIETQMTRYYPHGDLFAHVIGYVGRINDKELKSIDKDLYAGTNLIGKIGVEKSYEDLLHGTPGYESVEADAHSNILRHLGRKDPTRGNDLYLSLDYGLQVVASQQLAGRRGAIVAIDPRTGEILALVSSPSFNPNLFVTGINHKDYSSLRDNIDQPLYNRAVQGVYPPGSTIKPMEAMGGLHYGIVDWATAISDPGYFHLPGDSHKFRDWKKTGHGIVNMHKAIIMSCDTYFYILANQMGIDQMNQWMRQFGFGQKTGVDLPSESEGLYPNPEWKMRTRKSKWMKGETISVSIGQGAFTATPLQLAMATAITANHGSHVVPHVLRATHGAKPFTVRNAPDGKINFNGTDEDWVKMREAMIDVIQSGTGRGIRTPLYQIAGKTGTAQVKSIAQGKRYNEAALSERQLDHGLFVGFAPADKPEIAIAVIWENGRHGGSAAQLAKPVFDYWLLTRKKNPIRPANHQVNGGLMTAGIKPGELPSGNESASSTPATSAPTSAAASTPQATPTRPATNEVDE
From the text: as §1
(§3) To determine the ability of boronic acid-based test PBP inhibitors to bind Penicillin Binding Proteins (PBPs), Bocillin-FL (fluorescently-labeled penicillin V; ThermoFisher Scientific) was used in a fluorescence polarization (FP) competition binding assay to assess inhibitor binding to PBP2, PBP3 or PBP4 from Escherichia coli (K12), PBP3 from Pseudomonas aeruginosa (PA01), PBP1a, PBP2 and PBP3 from Acinetobacter baumannii (ATCC 19606), and PBP2 from Neiserria gonorrheae (FA19). PBPs were cloned and purified as described previously (E. coli PBPs, King, D. T, et al., ACS Infectious Diseases 2015, 1, 175-184; P. aeruginosa PBP3, Han et. al., PNAS 2010, 107 (51), 22002-22007; A. baumannii PBPs, Penwell et. al., Antimicrob. Agents Chemother. 2015, 59 (3), 1680-1689; N. gonorrhoeae PBP2, Singh et. al., J Biol. Chem. 2019, 294 (38), 14020-14032). To establish assay conditions for competition binding, enzyme titration/saturation binding experiments were initially performed. Bocillin-FL was prepared at 0.2 μM in a buffer comprised of 50 mM Hepes (pH 8.0), 300 mM NaCl and 5% (v/v) glycerol for reactions with E. coli, P. aeruginosa and N. gonorrhoeae PBPs, and 25 mM Tris (pH 8.0), 200 mM NaCl and 10% (v/v) glycerol and 0.005% (v/v) Tween 20 for reactions with A. baumannii PBPs. Saturation binding was performed by mixing 40 μl of PBP solutions ranging in concentrations from 0-24 μM with 40 μl of the 0.2 μM Bocillin-FL solution, in individual wells of a black 384-well microplate. FP was measured immediately upon mixing (Excitation, 490 nm; Emission, 520 nm; g-factor, 0.96), using a Cytation3 (BioTek) microplate reader and measured continuously for up to 120 minutes. […] The competition binding assay (80 μl final volume) was validated using beta-lactams and PBPs at final concentrations of: 1.5 μM, E. coli PBP3; 0.75 μM, P. aeruginosa PBP3; 1 μM A. baumannii PBP1a; 2.5 μM A. baumannii PBP2; 0.2 μM A. baumannii PBP3; and […] N. gonorrhoeae PBP2. Bocillin-FL was at 0.1 μM (0.05 μM with A. baumannii PBP1a) and beta-lactam concentrations ranged from 0-1000 μM. […] Bocillin-FL was added and the FP immediately measured for up to 60 minutes (90 minutes for E. coli PBP2). […] The beta-lactam potency was reported as the concentration of beta-lactam required to reduce the amount of PBP bound-Bocillin-FL by 50% (EC50). […] Binding assays for boronic acid PBP inhibitors were performed in an identical fashion for the respective PBPs

E. coli K12 PBP4 = target: T3, E. coli K12 PBP4 (Escherichia coli, UniProt P24228); assay: Bocillin-FL fluorescence polarization competition binding assay, E. coli PBP4; details: E. coli PBP4; assay validation with beta-lactams; read-out: EC50 (concentration of beta-lactam required to reduce the amount of PBP bound-Bocillin-FL by 50%)
T3 construct: made in house
From the text: as §1, §2

A. baumannii PBP1a = A. baumannii PBP1a (Acinetobacter baumannii, UniProt A0ABX6CK30); assay: Bocillin-FL fluorescence polarization competition binding assay, A. baumannii PBP1a
From the text: as §1, §3

A. baumannii PBP3 = A. baumannii PBP3 (Acinetobacter baumannii, UniProt A0ABX6CK25); assay: Bocillin-FL fluorescence polarization competition binding assay, A. baumannii PBP3
Procedure, shortened: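 A. baumannii PBP2 (2.5 μM) and PBP3 (0.2 μM) were run in 25 mM Tris pH 8.0 buffer with Tween 20; E. coli PBP3 (1.5 μM) and N. gonorrhoeae PBP2 ([…]) in 50 mM Hepes pH 8.0 buffer.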

SMILES: CC1(C)S[C@@H]2[C@H](/N=C/N3CCCCCC3)C(=O)N2[C@H]1C(=O)O [mecillinam, reference compound]
- EC50 (E. coli K12 PBP2): 2100 nM
- EC50 (A. baumannii PBP2): 400 nM

SMILES: C[C@@H](O)[C@H]1C(=O)N2C(C(=O)O)=C(S[C@@H]3CN[C@H](C(=O)N(C)C)C3)[C@H](C)[C@H]12 [meropenem, reference compound]
- EC50 (E. coli K12 PBP4): < 2000 nM
- EC50 (A. baumannii PBP1a): 230 nM
- EC50 (A. baumannii PBP3): 230 nM
